Experimental findings from patent US11571459B2, “Methods for treating cancer using PS-targeting antibodies with immuno-oncology agents” (ONCXERNA THERAPEUTICS, INC., priority 2017, dated 2023) are described below.

The subject of one data set is PS. In words: ELISA binding to PS-coated plates. The following applies: phospholipid-coated ELISA plates. How it is done: The 3G4 antibody was produced by immunizing mice with autologous, PS-positive endothelial cells, as reported in Ran et al., 2005. The 3G4 antibody was tested for binding to PS in a standard ELISA in the presence and absence of serum, and was initially characterized as being “serum-independent”, i.e., an antibody that binds to PS in the absence of serum.
In a follow-on study, the binding of the 2aG4 antibody to PS was tested in an ELISA in the presence of varying concentrations of human β2GPI.
These included binding to PS in ELISAs, FACS analyses using PS-positive cells and functional assays in the form of an NFAT surrogate ADCC bioassay (Larson et al., 2013).
For orientation: In an ELISA, binding on a coated surface is turned into a signal by an enzyme label.

Data set [1] concerns previously-treated Stage IIIb/IV non-squamous NSCLC. In words: Phase III trial of bavituximab plus docetaxel in NSCLC.
Source text: This global, double-blind Phase III trial was initiated in 2012. Selection criteria were for patients with Stage IIIb/IV non-squamous NSCLC who progressed on platinum-doublet chemotherapy (should have progressed on appropriate targeted therapy if known EGFR or ALK mutation), with ECOG PS 0-1 and prior immunotherapy allowed (ECOG is the performance status scale defined by the Eastern Cooperative Oncology Group). […] The primary endpoint was overall survival (OS) and secondary endpoints included objective response rate (Independent Central Review, ICR), progression-free survival (ICR), safety, PK, Quality of Life (LCSS) and exploratory biomarkers, including immune correlates.
OS was analyzed by VeriStrat subgroups using Kaplan-Meier statistical methods.
A single cutoff method was first used to assess the patient β2GPI data.
The initial analyses described above prompted further, extensive analyses of the data in 592 evaluable patients. These analyses used a two cutoff method (Klein & Moeschberger, 2003).
Archival tissue obtained at the time of diagnosis was requested, but not required, in the Phase III trial of Example X. Formalin-fixed paraffin-embedded (FFPE) slides were stained with antibodies for a panel of lymphoid (or tumor) cell markers, as described in Feng et al., 2015: CD3+, CD8+, FoxP3+, PD-L1+, CD163+ and CK+ (cytokeratin, an epithelial carcinoma marker) using a mutliplex (6-plex) quantitative immunohistochemistry (IHC) assay (OPAL®, PerkinElmer, Waltham, Mass., USA) and using DAPI. The PD-L1 antibody used was the rabbit anti-PD-L1 antibody termed E1L3N® XP® (Cell Signaling Technology, (CST), Danvers, Mass., Catalogue #13684; Mahoney et al., 2015). Baseline PD-L1 expression was retrospectively scored on tumor cells (TC, i.e., CK+) and PD-L1 expressing tumor cells were classified according to their percentage within the total number of tumor cells using established assays and classifications (Fehrenbacher et al., 2016), as follows: TC3≥50%; TC2≥5% and ≤50%; TC1≥1% and <5%; and TC0<1%. Cox regression models for PD-L1 IHC subgroup populations were used for correlation with OS.
Kaplan-Meier statistical methods and Cox proportional hazard models were utilized to evaluate and contrast the correlation of peripheral (and intratumoral) IFNγ levels with OS based on a data cut from the Phase III trial (Example X) dated Feb.
Data set [2] has as its system previously treated non-squamous NSCLC. The following applies: in vivo. Here is the method: The primary objective of this study was to compare the ORR (CR+PR) among the treatment arms. Secondary objectives included comparing PFS, DR, OS, safety and PK.
Additional blood draws were performed for these patients during Cycles 1 and 2 at specified time points.
Samples from the NSCLC Phase II trial of Example IX (PPHM 0902) were tested using the functional β2GPI assay of Example XII.

Data set [3] concerns previously untreated stage IV pancreatic cancer. In words: Phase II (PPHM 1002) gemcitabine with or without bavituximab. The data set is classed as in vivo, human. The following applies: for median overall survival: at study closure. Here is the method: The primary objective was to compare the OS of patients among the treatment arms. Secondary objectives included comparing PFS, ORR, DR and safety.
Gemcitabine (1000 mg/m^2) was given on days 1, 8, and 15 of each 28-day cycle (4 weeks) until disease progression or unacceptable toxicities. A total of 70 patients were enrolled to the study. In general, the patient population had very extensive disease burden, which may have reduced the response in both arms.
The levels of pre-treatment functional β2GPI ranged from 82.5 to 343.2 μg/ml for all patients. For these 31 patients, the mean level of pre-treatment functional β2GPI (219.2 μg/ml) was consistent with the average reported in the literature.

Data set [4] is described as follows: Phase I dose escalation study of bavituximab monotherapy in refractory advanced solid tumors: PK, safety.
Procedure: Samples were collected from patients in the 0.1 and 0.3 mg/kg dose cohorts before the study, on days 0, 1, 2, 4, 7, 10, 14, and every 7 days from days 21 to 70. Samples were collected from patients in the 1 and 3 mg/kg dose cohorts before the study, on days 0, 1, 2, 4, 7, 14, 21, 22, 23, 25, and every 7 days from days 28 to 56.
For the next data set, the target named is T1, functional β2GPI (Homo sapiens, UniProt P02749).
T1 construct: Samples of β2GPI purified from human plasma and recombinant human β2GPI were both treated with plasmin; from tissue; host or cells: human plasma / serum
T1 sequence (P02749 20-345): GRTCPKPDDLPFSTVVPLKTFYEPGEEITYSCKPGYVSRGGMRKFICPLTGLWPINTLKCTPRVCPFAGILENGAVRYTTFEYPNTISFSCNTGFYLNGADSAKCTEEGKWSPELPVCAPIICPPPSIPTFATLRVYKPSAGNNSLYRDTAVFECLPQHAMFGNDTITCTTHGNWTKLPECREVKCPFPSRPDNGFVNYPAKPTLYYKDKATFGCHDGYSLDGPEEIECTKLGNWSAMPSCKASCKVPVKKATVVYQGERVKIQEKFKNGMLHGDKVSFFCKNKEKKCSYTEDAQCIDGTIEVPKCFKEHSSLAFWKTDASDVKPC
As to the kind of experiment: Functional β2GPI assay (PS-coated plate, bavituximab-HRP). In kind it is binding. The following applies: recombinant or plasma-derived β2GPI. The source says: The following particular materials and equipment were used in the assay to generate the Results presented in this example under Sections B1 and B2. Materials: 96-well medium binding flat bottom plates (Greiner BioOne, cat #655001); 96-well non-binding round bottom plates (Costar, cat #3605); hexane (Sigma, cat #32293); PS antigen (Sigma, cat #P6641); ovalbumin (Sigma, cat #A5503); chromogenic substrate, tetramethylbenzidine (TMB), (KPL, cat #50-76-00); 2M H2SO4 (Fisher, Cat #SA818-4); plate covers (Fisher 015-027-11); adhesive plate sealer (VWR 232701); reagent reservoirs (VistaLab Cat #3054-1000). 1.5 mL microcentrifuge tubes, 50 mL conical tubes and 15 mL conical tubes were also utilized.
The Wash Buffer is IX phosphate-buffered saline (PBS) and the Blocking Buffer is 2% Ovalbumin in IX PBS.
The bavituximab antibody was conjugated to horseradish peroxidase (HRP) to prepare a bavituximab-HRP detection agent for use in the assay. The conjugation was performed using EZ-Link® Plus Activated Peroxidase (Thermo Scientific, Cat #31487) following the procedure for conjugating activated peroxidase to an antibody at pH 7.2 provided by the manufacturer. […] This was added to 1 mg of lyophilized EZ-Link Plus activated peroxidase to reconstitute. Immediately following reconstitution, 10 μL of 5M sodium cyanoborohydride solution was added to the reaction and incubated for 1 hour at room temperature. Once incubation was completed, 20 μL of quenching buffer was added and incubated for 15 minutes at room temperature. Conjugated bavituximab-HRP (1 mg/mL) was stored at 4° C. for up to 4 weeks.
The ELISA plates were coated with the PS antigen as follows: 5 μg/mL PS antigen was prepared and diluted into 6 mL of hexane in a fume hood with the blower off. 50 μL of PS solution was added to each well using a 12-channel pipette. The fume hood blower was turned back on and the hexane allowed to evaporate for 30-45 minutes, typically 30 minutes.
The PS-coated ELISA plates were blocked as follows: 100 mL per plate of the Blocking Buffer (2% Ovalbumin in IX PBS) was prepared. 200 μL of Blocking Buffer was added to each well using a 12-channel pipette.
The β2GPI standards for the positive control were obtained from Haematologic Technologies, Inc. (HTI; cat #B2G1-0001-C; 1.0 mg/ml) in a buffer of 0.2 M Glycine, 0.15 M NaCl, pH 7.4. […]

[5] abbreviates: 70% of targeted OS events reached.
Setting [6] is: about 85% of targeted OS events.

For “2aG4: mouse IgG2a chimeric version of the 3G4 antibody”, in the data set with PS, the “binding to phospholipids in standard ELISA” value was “essentially the same affinity and binding profile as the 3G4 antibody”.

On to `CC(=O)O[C@@]12CO[C@@H]1C[C@H](O)[C@@]1(C)C(=O)[C@H](O)C3=C(C)[C@@H](OC(=O)[C@H](O)[C@@H](NC(=O)OC(C)(C)C)c4ccccc4)C[C@@](O)([C@@H](OC(=O)c4ccccc4)[C@H]21)C3(C)C` [docetaxel, reference compound], for which, in data set [1] (12 months follow-up, about 85% of targeted OS events), the “median OS” value is listed as 10.9 months. The mOS was 10.8 months in data set [1] (setting [5]); 9.2 months in data set [1] (IFNγ high, no subsequent IO); 13.5 months in data set [1] (IFNγ high, received subsequent IO); 10.8 months in data set [1] (IFNγ low, no subsequent IO); 12.1 months in data set [1] (IFNγ low, received subsequent IO); 11.8 months in data set [1] (VS Good patients (VeriStrat)). Besides, the mOS in data set [1] (VS Poor patients (VeriStrat)) worked out at 4.7 months; in data set [1] (functional β2GPI 200-240 μg/mL), 7.7 months; in data set [1] (functional β2GPI ≥200 μg/mL, 578 evaluable patients) it was 9.4 months; in data set [1] (functional β2GPI ≥200 μg/mL, 592 evaluable patients) it was 10.1 months; in data set [1] (functional β2GPI ≥200 μg/mL, with subsequent IO), 12.3 months; in data set [1] (functional β2GPI ≥200 μg/mL, without subsequent IO) it was 9.2 months. The mOS stood at 10.4 months in data set [1] (higher PD-L1 expression (TC1/2/3, ≥1%)); 11.1 months in data set [1] (negative PD-L1 expression (TC0, <1%)); 12.6 months in data set [1] (patients receiving subsequent IO); 10.2 months in data set [1] (patients who did not receive subsequent IO); 10.6 months in data set [1] (pre-treatment serum IFNγ high (≥ median 0.093 μg/mL)); 11.1 months in data set [1] (pre-treatment serum IFNγ low (< median 0.093 μg/mL)). Also, the mOS in data set [1] (β2GPI less than 200 μg/mL, with subsequent IO) was 18.6 months; in data set [1] (β2GPI less than 200 μg/mL, without subsequent IO) it was 11.6 months. In addition, in data set [1] (setting [5]), the “median PFS” value came out at 3.9 months. Further, the “Grade 3 or higher adverse events” value in data set [1] (setting [6]) amounted to 60%. The ORR in data set [1] (setting [6]) was found to be 11%. Also, the PFS in data set [1] (setting [6]) is 4.1 months. In data set [1] (in vivo), the “HR, PD-L1 TC0 versus TC1/2/3 within arm” value worked out at 0.93. Also, the pharmacokinetic drug-drug interaction entry in data set [2] was “exhibited similar pharmacokinetic characteristics with or without the administration of bavituximab”.

Consider `Nc1ccn([C@@H]2O[C@H](CO)[C@@H](O)C2(F)F)c(=O)n1` [gemcitabine, reference compound], for which the median overall survival in data set [3] worked out at 5.2 months.

Take Bavi: the “Bavi” value in data set [4] (Cmax at 3 mg/kg expressed as molar concentration) came to 0.389 µM. The “Cmax” value in data set [4] (bavituximab 3 mg/kg, maximum concentration in blood (Example II; Gerber et al., 2011)) amounted to 56.4 µg/mL.

Consider “bavituximab plus gemcitabine: treatment arm: gemcitabine with weekly 3 mg/kg bavituximab”, for which the median overall survival in data set [3] was found to be 5.6 months. In data set [3] (in vivo), the TEAE anemia is listed as 35.3%; the “TEAE fatigue, constipation and anorexia (each)” value was found to be 32.4%; the TEAE nausea was found to be 44.1%; the “response rate and survival probability at 1 year compared with gemcitabine only” value was “numerically higher response rate and survival probability at 1 year”.

B1: β2GPI: plasmin-free (intact) β2GPI purified from human plasma or recombinant (protein)
chain: GRTCPKPDDLPFSTVVPLKTFYEPGEEITYSCKPGYVSRGGMRKFICPLTGLWPINTLKCTPRVCPFAGILENGAVRYTTFEYPNTISFSCNTGFYLNGADSAKCTEEGKWSPELPVCAPIICPPPSIPTFATLRVYKPSAGNNSLYRDTAVFECLPQHAMFGNDTITCTTHGNWTKLPECREVKCPFPSRPDNGFVNYPAKPTLYYKDKATFGCHDGYSLDGPEEIECTKLGNWSAMPSCKASCKVPVKKATVVYQGERVKIQEKFKNGMLHGDKVSFFCKNKEKKCSYTEDAQCIDGTIEVPKCFKEHSSLAFWKTDASDVKPC
Regarding B1, the “concentration read out in functional β2GPI assay” value with functional β2GPI was about 136 ng/mL.

B2: plasmin-treated β2GPI: β2GPI treated with plasmin, majority nicked, does not bind PS (protein)
chain: GRTCPKPDDLPFSTVVPLKTFYEPGEEITYSCKPGYVSRGGMRKFICPLTGLWPINTLKCTPRVCPFAGILENGAVRYTTFEYPNTISFSCNTGFYLNGADSAKCTEEGKWSPELPVCAPIICPPPSIPTFATLRVYKPSAGNNSLYRDTAVFECLPQHAMFGNDTITCTTHGNWTKLPECREVKCPFPSRPDNGFVNYPAKPTLYYKDKATFGCHDGYSLDGPEEIECTKLGNWSAMPSCKASCKVPVKKATVVYQGERVKIQEKFKNGMLHGDKVSFFCKNKEKKCSYTEDAQCIDGTIEVPKCFKEHSSLAFWKTDASDVKPC
As for B2, in the data set with functional β2GPI, the “concentration read out in functional β2GPI assay” value is recorded as 33 ng/mL.

The Cmax is the maximum level reached in the sampled fluid or tissue.
